Values quoted from earlier work, collected in patent publication US6077513A, “Drug for treatment of bilharziasis (Schistosomiasis)” (priority 1997, dated 2000).

Experiments:
[1] = tested on: isolated guinea pig ileum

For `CC1=C[C@@H]2[C@@H](CC1)[C@@](C)(O)CC[C@H]2C(C)C` [T-Cadinol], the “smooth muscle relaxing effect” value [1] is listed as “concentration - dependent smooth muscle relaxing effect” and the antibacterial effect (Staphylococcus aureus) is listed as “bacterial lysis and subsequent fatal loss of intracellular components”.
